Source: the supplement of paper PMC12137928
Counter-ions that a name gives are not always drawn.

System: HCT116
Conditions: 72 h
Method in brief: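 After seeding at 250 cells per well in 1536-well plates, HCT116 cells were given 5 h to attach. CellTiter-Glo luminescence, scaled to 0% for vehicle and -100% for positive control, was pattern-corrected. Fitting with a four-parameter Hill model produced IC50 and maximal efficacy.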

| IC50 cell viability (ICRF193 0 nM) | IC50 cell viability (ICRF193 200 nM) | SMILES |
| --- | --- | --- |
| > 45.8 µM | > 45.8 µM | C[C@@H]1NC(=O)[C@@H]2CCCN2C(=O)[C@H](CC(N)=O)NC(=O)[C@@H]2CSSC[C@H](N)C(=O)N[C@H]3CSSC[C@H](NC1=O)C(=O)N[C@@H]([C@@H](C)O)C(=O)NCC(=O)N[C@H](C(=O)N[C@@H](Cc1ccc(O)cc1)C(=O)O)CSSC[C@H](NC(=O)[C@H](Cc1ccc(O)cc1)NC(=O)[C@H](CCC(=O)O)NC3=O)C(=O)N2 [LINACLOTIDE (1 mg/ml)] |
| > 45.8 µM | > 45.8 µM | O.O.O.O.O=C([O-])CC(O)(CC(=O)[O-])C(=O)[O-].[Li+].[Li+].[Li+] [LITHIUM CITRATE] |
| > 45.8 µM | > 45.8 µM | CN1[C@@H](CC(=O)c2ccccc2)CCC[C@H]1C[C@H](O)c1ccccc1 [LOBELINE HYDROCHLORIDE] |
| > 45.8 µM | > 45.8 µM | CC(CCc1ccccc1)NCC(O)c1ccc(O)c(C(N)=O)c1 (centres undefined) [Labetalol HCl] |
| > 45.8 µM | > 45.8 µM | OC[C@@H](O)[C@@H](O[C@@H]1O[C@H](CO)[C@H](O)[C@H](O)[C@H]1O)[C@H](O)[C@@H](O)CO [Lactitol] |
| > 45.8 µM | > 45.8 µM | O=C(C[S+]([O-])Cc1ccco1)NC/C=C\COc1cc(CN2CCCCC2)ccn1 (centres undefined) [Lafutidine] |
| > 45.8 µM | > 45.8 µM | Nc1ccn([C@@H]2CS[C@H](CO)O2)c(=O)n1 [Lamivudine] |
| > 45.8 µM | > 45.8 µM | Nc1nnc(-c2cccc(Cl)c2Cl)c(N)n1 [Lamotrigine] |
| > 45.8 µM | > 45.8 µM | CC1(C)OC[C@@H](COC(=O)CCc2ccc(OC[C@@H](O)CNCCNC(=O)N3CCOCC3)cc2)O1 [Landiolol hydrochloride] |
| > 45.8 µM | > 45.8 µM | N#C/C(=C1/SCC(c2ccccc2Cl)S1)n1ccnc1 (centres undefined) [Lanoconazole] |
| > 45.8 µM | > 45.8 µM | C[C@H](CN1CCCC1)C(=O)c1ccc(C(F)(F)F)cc1 [Lanperisone hydrochloride] |
| > 45.8 µM | > 45.8 µM | CCN(C(=O)c1c(O)c2c(Cl)cccc2n(C)c1=O)c1ccccc1 [Laquinimod] |
| > 45.8 µM | > 45.8 µM | CC(C)OC(=O)CCC/C=C\C[C@@H]1[C@@H](CC[C@@H](O)CCc2ccccc2)[C@H](O)C[C@@H]1O [Latanoprost] |
| > 45.8 µM | > 45.8 µM | CCCCCCCCCCCCSCCOCCOCCOCCOCCOCCOCCOCCOCCOCCO [Laureth 10s] |
| > 45.8 µM | > 45.8 µM | NCCNC(=O)c1ccc(Cl)cn1 [Lazabemide hydrochloride] |
| > 45.8 µM | > 45.8 µM | COC(=O)N[C@H](C(=O)N1CC2(CC2)C[C@H]1c1nc(-c2ccc3c(c2)C(F)(F)c2cc(-c4ccc5[nH]c([C@@H]6[C@H]7CC[C@H](C7)N6C(=O)[C@@H](NC(=O)OC)C(C)C)nc5c4)ccc2-3)c[nH]1)C(C)C [Ledipasvir (GS 5885)] |
| > 45.8 µM | > 45.8 µM | Nc1cccc2c1CN(C1CCC(=O)NC1=O)C2=O (centres undefined) [Lenalidomide] |
| > 45.8 µM | > 45.8 µM | Cc1oc(=O)oc1COC(=O)[C@@H]1N2C(=O)[C@@H](NC(=O)[C@H](N)c3ccccc3)[C@H]2SC1(C)C [Lenampicillin hydrochloride] |
| > 45.8 µM | > 45.8 µM | O=C(CCCN1CCC(C(=O)c2ccc(F)cc2)CC1)c1ccc(F)cc1 [Lenperone Hydrochloride] |
| > 45.8 µM | > 45.8 µM | COc1cc2nccc(Oc3ccc(NC(=O)NC4CC4)c(Cl)c3)c2cc1C(N)=O [Lenvatinib] |
| > 45.8 µM | > 45.8 µM | O=C(O)CSc1nnc(Br)n1-c1ccc(C2CC2)c2ccccc12 [Lesinurad (sodium)] |

| SMILES | IC50 cell viability (ICRF193 0 nM) | IC50 cell viability (ICRF193 200 nM) |
| --- | --- | --- |
| Cl[C@H]1[C@H](Cl)[C@@H](Cl)[C@@H](Cl)[C@H](Cl)[C@H]1Cl [LINDANE] | > 45.8 µM | > 45.8 µM |
